Legend:
[1] = test system: duodenum mucosa; test: Observation of the duodenum employed in the experiment for mucosa damage; format: in vivo; conditions: rat duodenum employed in the experiment
Procedure: (§1) Experimental method A was repeated except that saponins A, B and C were respectively used in a concentration of 5 mg/liter in place of the galenical extract in a solution to be administered.
Examples according to the above experimental method are shown in the following Examples 6, 7 and 8. […] This may be ascribed to low acute toxicity of the drug absorption promoter of the present invention, as can readily be understood from the fact that the galenicals used in the present invention have been widely accepted as herb medicines or the like.

[2] = Ampicillin blood level after suppository with saponin A, B or C (suppository tests); format: in vivo; conditions: rat
Procedure: The effectiveness of the saponins A, B and C when they were formulated into suppositories was tested in a method similar to the above Experimental method A.
Thus, rats weighing 180 to 220 g were anesthetized with 30 mg/kg of pentobarbital sodium and fixed by supination on a water bed made of a metal through which water regulated at a constant temperature of 39° C. was circulated. A suppository in a proportion of 1 g/kg of body weight of the rat was inserted through the anus and pushed by a glass bar until it reached the connecting point of the pubes.
The suppositories tested had the following compositions:
Saponin A, B or C: 0.5-2 mg/kg-rat, and
Vehicle*: remainder for giving 1 mg of suppository/kg-rat.
*Witepsol® produced by Dynamit Novel A.G.
Thus, the assay was performed by the paper disc method according to The Japan Antibiotic Drug Standards using Bacillus subtilis as the test microorganism.

[3] = Ampicillin blood level after injection with galenical extract or isolated saponin into rat duodenal loop (Experimental method A); conditions: in vivo
Procedure: Rats weighing 180 to 220 g were anesthetized with 30 mg/kg of pentobarbital sodium and fixed by supination on a water bed made of a metal through which water regulated at a constant temperature of 39° C. was circulated. A duodenal loop of 10 cm length was prepared in a conventional manner with the point 1 cm under the pyloric part of the stomach as the starting point. […] The rats were bled from jugular veins 10, 20, 40, 60, 90, 120, 180 and 240 minutes after injection and activity concentration in the blood in each case was measured according to biological assay.
That is, according to The Japan Antibiotic Drug Standards, using Bacillus subtilis as test microorganism, cultivation assay was performed by the paper disc method at 37° C. for 15 to 20 hours.
The composition of the solution had the following composition:
Galenical extract: 2 mg/ml-20 mg/ml
as §1

[4] = Ampicillin blood level after administration with galenical extract by stomach probe (Experimental method B); format: in vivo; conditions: rat
Procedure: Rats weighing 200 to 230 g under anesthesia with ether were intubated with polyethylene tube (PE-10) at the femoral artery with ligation. The other end of PE-10 was passed subcutaneously to be led to the cervicodorsal part, at which it was drawn out of the skin and fixed with capping. After restoration of the vulnus at the operated portion (about 24 hours), each rat was provided for the experiment.
The test microorganism used was Bacillus subtilis, and the assay was performed by the paper disc method according to The Japan Antibiotic Drug Standards.

## C[C@@H]1O[C@@H](O[C@H]2[C@H](O[C@H]3CC[C@@]4(C)[C@@H](CC[C@]5(C)[C@@H]4CC=C4[C@@H]6CC(C)(C)CC[C@]6(C(=O)O)CC[C@]45C)[C@]3(C)CO)OC[C@H](O)[C@@H]2O)[C@H](O)[C@H](O[C@@H]2OC[C@H](O)[C@H](O)[C@H]2O)[C@H]1O [Saponin A, 3-O-[α-L-arabinopyranosyl-(1→3)-α-L-rhamnopyranosyl-(1→2) -α-L-arabinopyranosyl]-hederagenin]
[1]
  damage of mucosa or abnormality such as hemorrhagic spot of the duodenum: no damage of mucosa (e.g. mucosa ablation) or abnormality such as hemorrhagic spot

## C[C@@H]1O[C@@H](O[C@H]2[C@H](O[C@H]3CC[C@@]4(C)[C@@H](CC[C@]5(C)[C@@H]4CC=C4[C@@H]6CC(C)(C)CC[C@]6(C(=O)O)CC[C@]45C)[C@]3(C)CO)OC[C@H](O)[C@@H]2O)[C@H](O)[C@H](O[C@@H]2OC[C@@H](O)[C@H](O)[C@H]2O)[C@H]1O [Saponin B, 3-O-[β-D-xylopyranosyl-(1→3)-α-L-rhamnopyranosyl-(1→2)-α-L-arabinopyranosyl]-hederagenin]
[1]
  damage of mucosa or abnormality such as hemorrhagic spot of the duodenum: no damage of mucosa (e.g. mucosa ablation) or abnormality such as hemorrhagic spot

## C[C@@H]1O[C@@H](O[C@H]2[C@H](O[C@H]3CC[C@@]4(C)[C@@H](CC[C@]5(C)[C@@H]4CC=C4[C@@H]6CC(C)(C)CC[C@]6(C(=O)O)CC[C@]45C)[C@]3(C)CO)OC[C@H](O)[C@@H]2O)[C@H](O)[C@H](O[C@@H]2O[C@@H](CO)[C@H](O)[C@H]2O)[C@H]1O [Saponin C, 3-O-[α-L-arabinofuranosyl-(1→3)-α-L-rhamnopyranosyl-(1→2)-α-L-arabinopyranosyl]-hederagenin]
[1]
  damage of mucosa or abnormality such as hemorrhagic spot of the duodenum: no damage of mucosa (e.g. mucosa ablation) or abnormality such as hemorrhagic spot

## CC1(C)S[C@@H]2[C@H](NC(=O)[C@H](N)c3ccccc3)C(=O)N2[C@H]1C(=O)O [ampicillin sodium]
[2]; in vivo, 50 mg/kg
  concentration at 5 min: 3120 ± 1660 ng/mL
  concentration at 10 min: 3980 ± 1890 ng/mL
  concentration at 35 min: 1910 ± 890 ng/mL
  concentration at 1 h: 930 ± 540 ng/mL
[2]; suppository, ampicillin sodium 50 mg/kg, 100 min (Table 8A, upper part)
  Concentration in Blood, 100 min.: trace
[3]; 20 min
  Concentration in Blood, 20 min. (Control): 0.89 ± 0.07 μg titer/ml
[3]; 40 min
  Concentration in Blood, 40 min. (Control): 1.1 μg titer/ml
[3]; 4 h
  Concentration in Blood, 240 min. (Control): 0.5 μg titer/ml
[3]; Concentration in Blood, 10 min. (Control)
  concentration at 10 min: 600 ng/mL
[3]; Concentration in Blood, 40 min. (Control)
  concentration at 40 min: 1100 ng/mL
[3]; Concentration in Blood, 60 min. (Control)
  concentration at 1 h: 1200 ng/mL
[3]; Concentration in Blood, 180 min. (Control)
  concentration at 3 h: 500 ng/mL
[3]; Concentration in Blood, 240 min. (Control)
  concentration at 4 h: 500 ng/mL
[4]; in vivo, po, 25 mg/kg, 10 min
  Concentration in Blood, 10 min. (- Control): 0.3 μg titer/ml
[4]; in vivo, po, 25 mg/kg, 20 min
  Concentration in Blood, 20 min. (- Control): 0.6 μg titer/ml
[4]; in vivo, po, 25 mg/kg, 40 min
  Concentration in Blood, 40 min. (- Control): 1.3 μg titer/ml
[4]; in vivo, po, 25 mg/kg, 1 h
  Concentration in Blood, 60 min. (- Control): 0.5 μg titer/ml
[4]; in vivo, po, 25 mg/kg, Concentration in Blood, 10 min. (- Control)
  concentration at 10 min: 400 ng/mL
[4]; in vivo, po, 25 mg/kg, Concentration in Blood, 20 min. (- Control)
  concentration at 20 min: 800 ng/mL
[4]; in vivo, po, 25 mg/kg, Concentration in Blood, 40 min. (- Control)
  concentration at 40 min: 1200 ng/mL
[4]; in vivo, po, 25 mg/kg, Concentration in Blood, 60 min. (- Control)
  concentration at 1 h: 800 ng/mL
[4]; in vivo, po, 25 mg/kg, Concentration in Blood, 90 min. (- Control)
  concentration at […]: 300 ng/mL
[4]; stomach probe, ampicillin sodium without extract (Control), 90 min, tr.: trace
  Concentration in Blood, 90 min. (- Control): tr.
[4]; stomach probe, ampicillin sodium without extract (Control), 120 min, tr.: trace
  Concentration in Blood, 120 min. (- Control): tr.
[4]; stomach probe, ampicillin sodium without extract (Control), 180 min, tr.: trace
  Concentration in Blood, 180 min. (- Control): tr.
[4]; stomach probe, ampicillin sodium without extract (Control), 240 min, tr.: trace
  Concentration in Blood, 240 min. (- Control): tr.
